Experimental data from ChEMBL document CHEMBL1201862, “PubChem BioAssay data set” (2004).
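1) Cells in 96-well plates. 2) Compound, 48 h, 5 concentrations. 3) Linear interpolation between surrounding doses. 4) Unreached endpoint = highest concentration. GI50 is the concentration that inhibits growth by half.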 Active and inactive are the calls of the source. Cut-off read from the data, not from the text of the source: active = GI50 up to about 1.1 µM and inactive = higher.

Assays:
Assay in all cases: DTP human tumour cell line panel, 48 h
[1] = system: 786-0
[2] = system: A498
[3] = system: A549
[4] = system: ACHN
[5] = system: CAKI-1
[6] = system: CCRF-CEM
[7] = system: COLO 205
[8] = system: DLD-1
[9] = system: DMS-114
[10] = system: DMS-273
[11] = system: EKVX
[12] = system: HCC 2998
[13] = system: HCT-116
[14] = system: HCT-15
[15] = system: HL-60
[16] = system: HOP-18
[17] = system: HOP-62
[18] = system: HOP-92
[19] = system: HT-29
[20] = system: IGROV-1
[21] = system: K562
[22] = system: KM-20L2
[23] = system: KM12
[24] = system: LOX IMVI
[25] = system: LXFL 529
[26] = system: M14
[27] = system: M19-MEL
[28] = system: MOLT-4
[29] = system: Malme-3M
[30] = system: NCI-H226
[31] = system: NCI-H23
[32] = system: NCI-H460
[33] = system: NCI-H522
[34] = system: OVCAR-3
[35] = system: OVCAR-4
[36] = system: OVCAR-5
[37] = system: OVCAR-8
[38] = system: RPMI-8226
[39] = system: RXF 393
[40] = system: RXF 631
[41] = system: SF-268
[42] = system: SF-295
[43] = system: SF-539
[44] = system: SK-MEL-28
[45] = system: SK-MEL-2
[46] = system: SK-MEL-5
[47] = system: SK-OV-3
[48] = system: SN12C
[49] = system: SNB-19
[50] = system: SNB-75
[51] = system: SR
[52] = system: TK-10
[53] = system: U-251
[54] = system: UACC-257
[55] = system: UACC-62
[56] = system: UO-31
[57] = system: XF498
[58] = system: SNB-78
[59] = system: SW-620

## COC(=O)C(=O)C(C(=O)OC)C(=O)C(=O)Nc1cc(Cl)c(Cl)cc1Cl (stereo unspecified)
[1]
  GI50: > 100 µM (inactive)
[2]
  GI50: > 100 µM (inactive)
[3]
  GI50: > 100 µM (inactive)
[4]
  GI50: > 100 µM (inactive)
[5]
  GI50: > 100 µM (inactive)
[6]
  GI50: 31.6 µM (inactive)
[7]
  GI50: 29.4 µM (inactive)
[8]
  GI50: 76.4 µM (inactive)
[9]
  GI50: 14.6 µM (inactive)
[10]
  GI50: 44.7 µM (inactive)
[11]
  GI50: > 100 µM (inactive)
[12]
  GI50: > 100 µM (inactive)
[13]
  GI50: 22.4 µM (inactive)
[14]
  GI50: 47.1 µM
[15]
  GI50: > 100 µM (inactive)
[16]
  GI50: > 100 µM (inactive)
[17]
  GI50: > 100 µM (inactive)
[18]
  GI50: > 100 µM (inactive)
[19]
  GI50: 49.8 µM (inactive)
[20]
  GI50: > 100 µM (inactive)
[21]
  GI50: > 100 µM (inactive)
[22]
  GI50: > 100 µM (inactive)
[23]
  GI50: > 100 µM (inactive)
[24]
  GI50: 61 µM (inactive)
[25]
  GI50: > 100 µM (inactive)
[26]
  GI50: > 100 µM (inactive)
[27]
  GI50: > 100 µM (inactive)
[28]
  GI50: > 100 µM (inactive)
[29]
  GI50: > 100 µM (inactive)
[30]
  GI50: > 100 µM (inactive)
[31]
  GI50: > 100 µM (inactive)
[32]
  GI50: > 100 µM (inactive)
[33]
  GI50: > 100 µM (inactive)
[34]
  GI50: > 100 µM (inactive)
[35]
  GI50: > 100 µM (inactive)
[36]
  GI50: > 100 µM (inactive)
[37]
  GI50: > 100 µM (inactive)
[38]
  GI50: 24.9 µM (inactive)
[39]
  GI50: > 100 µM (inactive)
[40]
  GI50: > 100 µM (inactive)
[41]
  GI50: > 100 µM (inactive)
[42]
  GI50: > 100 µM (inactive)
[43]
  GI50: > 100 µM (inactive)
[44]
  GI50: > 100 µM (inactive)
[45]
  GI50: > 100 µM (inactive)
[46]
  GI50: > 100 µM (inactive)
[47]
  GI50: > 100 µM (inactive)
[48]
  GI50: > 100 µM (inactive)
[49]
  GI50: > 100 µM (inactive)
[50]
  GI50: > 100 µM (inactive)
[51]
  GI50: 24.8 µM (inactive)
[52]
  GI50: > 100 µM (inactive)
[53]
  GI50: > 100 µM (inactive)
[54]
  GI50: > 100 µM (inactive)
[55]
  GI50: > 100 µM (inactive)
[56]
  GI50: > 100 µM (inactive)
[57]
  GI50: > 100 µM (inactive)

## CN(C)CC(/C(Cc1ccccc1)=N\NC(=O)C[n+]1ccccc1)c1ccccc1 (stereo unspecified)
[1]
  GI50: > 100 µM (inactive)
[2]
  GI50: > 100 µM (inactive)
[3]
  GI50: > 100 µM (inactive)
[4]
  GI50: > 100 µM (inactive)
[5]
  GI50: > 100 µM (inactive)
[6]
  GI50: > 100 µM (inactive)
[7]
  GI50: > 100 µM (inactive)
[9]
  GI50: > 100 µM (inactive)
[10]
  GI50: 38.8 µM (inactive)
[11]
  GI50: > 100 µM (inactive)
[12]
  GI50: > 100 µM (inactive)
[13]
  GI50: > 100 µM (inactive)
[14]
  GI50: > 100 µM
[15]
  GI50: > 100 µM (inactive)
[16]
  GI50: > 100 µM (inactive)
[17]
  GI50: > 100 µM (inactive)
[18]
  GI50: > 100 µM (inactive)
[19]
  GI50: > 100 µM (inactive)
[20]
  GI50: > 100 µM (inactive)
[21]
  GI50: > 100 µM (inactive)
[22]
  GI50: > 100 µM (inactive)
[23]
  GI50: > 100 µM (inactive)
[24]
  GI50: > 10 µM (inactive)
[25]
  GI50: > 100 µM (inactive)
[26]
  GI50: > 100 µM (inactive)
[27]
  GI50: > 100 µM (inactive)
[28]
  GI50: > 100 µM (inactive)
[29]
  GI50: > 100 µM (inactive)
[30]
  GI50: > 100 µM (inactive)
[31]
  GI50: > 100 µM (inactive)
[32]
  GI50: > 100 µM (inactive)
[33]
  GI50: 80.9 µM (inactive)
[34]
  GI50: > 100 µM (inactive)
[35]
  GI50: > 100 µM (inactive)
[36]
  GI50: > 100 µM (inactive)
[37]
  GI50: 35.1 µM (inactive)
[39]
  GI50: > 100 µM (inactive)
[40]
  GI50: > 100 µM (inactive)
[41]
  GI50: > 100 µM (inactive)
[42]
  GI50: > 100 µM (inactive)
[43]
  GI50: > 100 µM (inactive)
[44]
  GI50: > 100 µM (inactive)
[45]
  GI50: > 100 µM (inactive)
[46]
  GI50: > 100 µM (inactive)
[47]
  GI50: > 100 µM (inactive)
[48]
  GI50: > 100 µM (inactive)
[49]
  GI50: > 100 µM (inactive)
[50]
  GI50: > 100 µM (inactive)
[58]
  GI50: 53.2 µM (inactive)
[51]
  GI50: > 100 µM (inactive)
[52]
  GI50: > 100 µM (inactive)
[53]
  GI50: > 100 µM (inactive)
[54]
  GI50: > 100 µM (inactive)
[55]
  GI50: > 100 µM (inactive)
[56]
  GI50: > 100 µM (inactive)
[57]
  GI50: > 100 µM (inactive)

## CC1(C)OCC[C@@H]1[Si](C)(C)C
[1]
  GI50: > 100 µM (inactive)
[2]
  GI50: 30.1 µM (inactive)
[3]
  GI50: > 100 µM (inactive)
[4]
  GI50: 27.5 µM (inactive)
[6]
  GI50: 26.9 µM (inactive)
[7]
  GI50: > 100 µM (inactive)
[9]
  GI50: 49.2 µM (inactive)
[10]
  GI50: 78.3 µM (inactive)
[11]
  GI50: 26.2 µM (inactive)
[13]
  GI50: 92.7 µM (inactive)
[14]
  GI50: 32.4 µM
[16]
  GI50: 23.1 µM (inactive)
[18]
  GI50: 55.8 µM (inactive)
[19]
  GI50: > 100 µM (inactive)
[20]
  GI50: > 100 µM (inactive)
[21]
  GI50: 21.4 µM (inactive)
[22]
  GI50: > 100 µM (inactive)
[23]
  GI50: > 100 µM (inactive)
[24]
  GI50: 56.9 µM (inactive)
[25]
  GI50: > 100 µM (inactive)
[26]
  GI50: > 100 µM (inactive)
[27]
  GI50: > 100 µM (inactive)
[28]
  GI50: 33 µM (inactive)
[29]
  GI50: > 100 µM (inactive)
[30]
  GI50: 70.1 µM (inactive)
[31]
  GI50: 53.6 µM (inactive)
[32]
  GI50: > 100 µM (inactive)
[33]
  GI50: 15.3 µM (inactive)
[34]
  GI50: 71.9 µM (inactive)
[35]
  GI50: 55.3 µM (inactive)
[36]
  GI50: > 100 µM (inactive)
[37]
  GI50: > 100 µM (inactive)
[38]
  GI50: 29.6 µM (inactive)
[39]
  GI50: 16.5 µM (inactive)
[40]
  GI50: > 100 µM (inactive)
[41]
  GI50: 36.2 µM (inactive)
[42]
  GI50: 90.8 µM (inactive)
[43]
  GI50: > 100 µM (inactive)
[44]
  GI50: 84.7 µM (inactive)
[45]
  GI50: > 100 µM (inactive)
[46]
  GI50: 26.9 µM (inactive)
[47]
  GI50: > 100 µM (inactive)
[48]
  GI50: > 100 µM (inactive)
[49]
  GI50: > 100 µM (inactive)
[50]
  GI50: 52.1 µM (inactive)
[58]
  GI50: > 100 µM (inactive)
[59]
  GI50: > 100 µM (inactive)
[52]
  GI50: 73.5 µM (inactive)
[53]
  GI50: > 100 µM (inactive)
[54]
  GI50: > 100 µM (inactive)
[55]
  GI50: 24.5 µM (inactive)
[56]
  GI50: 42.9 µM (inactive)
[57]
  GI50: 32.8 µM (inactive)
